# Assay results: patent US20250243220A1, “ATR INHIBITORS” (APREA THERAPEUTICS, INC., priority 2022, published 2025)
# Assays:
# Format in all cases: cell-based
# MEC (+APH) = assay: MEC (+APH)
# HCT116 Bcl/xl = assay: IC50 assay by Western blot (APH-treated cells), HCT116 Bcl/xl; settings: for IC50: Homo sapiens, HCT-116
# Description: (§1) E. Treatment of Cells for IC50 Assay by Western Blot
# (§2) The compound is stored as a 1 mM stock solution prepared in accordance with the Receipt of Compound SOP. The stock solution is diluted in cell media in two separate 1:10 dilution series.
# (§3) 1. Arrange twelve 15-mL centrifuge tubes in a rack in two series and label them in accordance with Dilutions Series 1 and Dilution Series 2 shown in Table 1 and Table 2, respectively.
# (§4) 2. Place 2.5 mL of prewarmed cell media in each of the […]. Place 2.25 mL of prewarmed cell media in the remaining tubes.
# (§5) 3. Add 7.5 μL of 1 mM compound stock solution in the 3 μM tube. Mix well.
# (§6) 4. Add 2.5 μL of 1 mM compound stock solution in the 1 μM tube. Mix well.
# (§7) 5. For each series (separately), remove 250 μL from the leftmost tube and transfer to the next tube to the right. Repeat for each tube until the series is complete.
# (§8) 6. Set aside the 1 μM tube, the 3 μM tube, and the 300 nM tube for discard.
# (§9) 7. The cells to be treated will be in 6-well plates labeled by cell line. Remove the cells from the incubator and label the wells with the dosages to be administered.
# (§10) 8. Arrange the dilution tubes in the rack in a manner that reflects the 6-well plate arrangement so as to avoid confusion when administering the dosage solutions to the appropriate wells.
# (§11) 9. Aspirate the three wells in the top row of the first plate (labeled NT, APH+, and APH+) and replace with 2 mL fresh media (without drug compound).
# (§12) 10. Aspirate the three wells in the bottom row of the first plate and replace each well with 2 mL of solution from the appropriate tube.
# (§13) 11. Repeat step 10 for the next row of wells (top row second plate). and then for the final row of wells (bottom row second plate).
# (§14) 12. Place both plates into the incubator for 30 minutes.
# (§15) 13. After 30 minutes have elapsed, remove the plates from the incubator.
# (§16) 14. Acquire stock solution of APH (5 mM) and add 2 μL of the APH stock solution to the center of each well except the well labeled NT.
# (§17) 15. Swirl the plates carefully and gently to diffuse the APH throughout each well.
# (§18) 16. Place the plates back in the incubator for 4 hours, at which point the cells will be harvested for analysis.
# (§19) 17. Twenty minutes before harvesting (or 3 hours and 40 minutes after administration of APH), turn on a heat block suitable to heat Eppendorf tubes. Set the temperature to 95° C.
# (§20) 18. Set up a number of Eppendorf tubes equal to the number of wells treated (i.e., twelve per two-plate drug administration), and label each tube with cell line, compound administered, dosage level, and date. Leave the tubes open.
# (§21) 19. Add 200 mL DI water to a beaker.
# (§22) 20. After 4 hours, remove treated plates from incubator.
# (§23) 21. Aspirate media from all wells.
# (§24) 22. Wash each well with 2 mL 1×PBS and aspirate.
# (§25) 23. Sterilize vacuum line with 70% ethanol by spraying some into the nozzle while the vacuum is engaged. Shut off vacuum.
# (§26) 24. Add Laemmli buffer to each well. For HCT116 Bcl/xl, OVCAR-3, and 22RV1 cells, add 300 μL per well; for OVCAR-8 and SKOV-3 cells, add 250 μL per well.
# (§27) 25. Scrape the first well thoroughly. Place the scraper into the DI water between uses.
# (§28) 26. Transfer the lysed cell debris mixture to the first tube carefully. The mixture will be viscous. Use a 1000-μL pipettor. Close the tube.
# (§29) 27. Repeat steps 25 and 26 for each well.
# (§30) 28. When all wells have been harvested, place all the tubes into the heat block. Place a weighted, heat-resistant object on top of the tubes to keep them closed.
# (§31) 29. After 5 minutes, remove the tubes from the heat block and turn it off. Vortex each tube for 10 seconds. Be cautious of tubes popping open.
# (§32) 30. Allow the tubes to come to room temperature and proceed to further analysis or store frozen at −20° C.
# OVCAR-3 = assay: IC50 assay by Western blot (APH-treated cells), OVCAR-3; settings: OVCAR-3 cells; for IC50: Homo sapiens
# Description: as §1, §2, §3, §4, §5, §6, §7, §8, §9, §10, §11, §12, §13, §14, §15, §16, §17, §18, §19, §20, §21, §22, §23, §24, §25, §26, §27, §28, §29, §30, §31, §32
# OVCAR-8 = assay: IC50 assay by Western blot (APH-treated cells), OVCAR-8; settings: OVCAR-8 cells; for IC50: Homo sapiens
# Description: as §1, §2, §3, §4, §5, §6, §7, §8, §9, §10, §11, §12, §13, §14, §15, §16, §17, §18, §19, §20, §21, §22, §23, §24, §25, §26, §27, §28, §29, §30, §31, §32
# SKOV-3 = assay: IC50 assay by Western blot (APH-treated cells), SKOV-3; settings: SKOV-3 cells; for IC50: Homo sapiens, SK-OV-3
# Description: as §1, §2, §3, §4, §5, §6, §7, §8, §9, §10, §11, §12, §13, §14, §15, §16, §17, §18, §19, §20, §21, §22, §23, §24, §25, §26, §27, §28, §29, §30, §31, §32
# 22RV1 = assay: IC50 assay by Western blot (APH-treated cells), 22RV1; settings: 22RV1 cells; for IC50: Homo sapiens
# Description: as §1, §2, §3, §4, §5, §6, §7, §8, §9, §10, §11, §12, §13, §14, §15, §16, §17, §18, §19, §20, §21, §22, §23, §24, §25, §26, §27, §28, §29, §30, §31, §32
# [1] = system: HCT Bcl/xl, OVCAR-3, OVCAR-8, SKOV-3, 22RV1 cell lines; assay: Ave. IC50 across cell lines; settings: average across cell lines
SMILES,minimal effective concentration (MEC (+APH)),IC50 (HCT116 Bcl/xl),PALD (Percent Activity at Lowest Dose tested) HCT Bcl/xl (HCT116 Bcl/xl),IC50 (OVCAR-3),PALD (Percent Activity at Lowest Dose tested) OVCAR-3 (OVCAR-3),IC50 (OVCAR-8),PALD (Percent Activity at Lowest Dose tested) OVCAR-8 (OVCAR-8),IC50 (SKOV-3),PALD (Percent Activity at Lowest Dose tested) SKOV-3 (SKOV-3),PALD (Percent Activity at Lowest Dose tested) 22RV1 (22RV1),IC50 (22RV1),IC50 [1]
"CNCc1cccc2c1OCCCCCCC(C)(O)CC(C)(C)S(=O)(=O)c1ccc(cc1)-c1cnc(N)c(n1)C(=O)N2 (racemic) [Compound A, 5-amino-22-hydroxy-22,24,24-trimethyl-13-(methylaminomethyl)-25,25-dioxo-15-oxa-25λ^6-thia-4,8,31-triazatetracyclo[24.2.2.1^2,6.0^9,14]hentriaconta-1(28),2(31),3,5,9(14),10,12,26,29-nonaen-7-one]",2e-05 µM,3.49 nM,(74%),2.19 nM,(111%),1.68 nM,(71%),2.39 nM,(88%),(73%),8.28 nM,3.61 nM
"CNCc1cccc2c1OCCCCCCC(C)(O)CC1(CC1)S(=O)(=O)c1ccc(cc1)-c1cnc(N)c(n1)C(=O)N2 (racemic) [Compound B, 5-amino-22-hydroxy-22-methyl-13-(methylaminomethyl)-25,25-dioxo-spiro[15-oxa-25λ^6-thia-4,8,31-triazatetracyclo[24.2.2.1^2,6.0^9,14]hentriaconta-1(28),2,4,6(31),9(14),10,12,26,29-nonaene-24,1′-cyclopropane]-7-one]",4e-05 µM,4.63 nM,(115%),2.15 nM,(121%),4.47 nM,(94%),2.62 nM,(106%),(141%),2.99 nM,3.37 nM
"CC1(C)C[C@@](C)(O)CCCCCCOc2c(CN)cccc2NC(=O)c2nc(cnc2N)-c2ccc(cc2)S1(=O)=O (single isomer, unassigned) [Compound C-1]",1e-05 µM,4.53 nM,(72%),1.02 nM,(115%),3.63 nM,(83%),,,(107%),3.5 nM,2.7 nM
"CNCc1cccc2c1OCCCCCC[C@H](O)CC(C)(C)S(=O)(=O)c1ccc(cc1)-c1cnc(N)c(n1)C(=O)N2 (single isomer, unassigned) [Compound G-1]",4e-05 µM,7.77 nM,(115%),,,4.97 nM,(85%),,,(111%),7.02 nM,
"CNCc1cccc2c1OCCCCCC[C@@H](O)CC(C)(C)S(=O)(=O)c1ccc(cc1)-c1cnc(N)c(n1)C(=O)N2 (single isomer, unassigned) [Compound G-2]",4e-05 µM,7.9 nM,(83%),,,,,4.94 nM,(92%),(86%),8.57 nM,
"CC1(C)C[C@@H](O)CCCCCCOc2c(CN)cccc2NC(=O)c2nc(cnc2N)-c2ccc(cc2)S1(=O)=O (single isomer, unassigned) [Compound H-1]",4e-05 µM,4.46 nM,(89%),,,,,,,(71%),7.84 nM,
"CC1(C)C[C@H](O)CCCCCCOc2c(CN)cccc2NC(=O)c2nc(cnc2N)-c2ccc(cc2)S1(=O)=O (single isomer, unassigned) [Compound H-2]",2e-05 µM,6.43 nM,(89%),,,,,,,,,
"CN(C)Cc1cccc2c1OCCCCCCC(C)(O)CC(C)(C)S(=O)(=O)c1ccc(cc1)-c1cnc(N)c(n1)C(=O)N2 (stereo not drawn) [Compound E, 5-amino-13-[(dimethylamino)methyl]-22-hydroxy-22,24,24-trimethyl-25,25-dioxo-15-oxa-25λ^6-thia-4,8,31-triazatetracyclo[24.2.2.1^2,6.0^9,14]hentriaconta-1(28),2,4,6(31),9(14),10,12,26,29-nonaen-7-one]",8e-05 µM,6.5 nM,(91%),,,6.47 nM,(139%),,,(72%),3.28 nM,
"CN(C)Cc1cccc2c1OCCCCCCC(C)(O)CC1(CC1)S(=O)(=O)c1ccc(cc1)-c1cnc(N)c(n1)C(=O)N2 (stereo not drawn) [Compound F, 5-amino-13-[(dimethylamino)methyl]-22-hydroxy-22-methyl-25,25-dioxo-spiro[15-oxa-25λ^6-thia-4,8,31-triazatetracyclo[24.2.2.1^2,6.0^9,14]hentriaconta-1(28),2,4,6(31),9(14),10,12,26,29-nonaene-24,1′-cyclopropane]-7-one]",0.000156 µM,14.1 nM,(104%),8.23 nM,(86%),31.5 nM,(81%),,,(96%),10.8 nM,
"CN(C)Cc1cccc2c1OCCCCCCC(O)CC(C)(C)S(=O)(=O)c1ccc(cc1)-c1cnc(N)c(n1)C(=O)N2 (stereo not drawn) [Compound G, 5-amino-13-[(dimethylamino)methyl]-22-hydroxy-24,24-dimethyl-25,25-dioxo-15-oxa-25λ^6-thia-4,8,31-triazatetracyclo[24.2.2.1^2,6.0^9,14]hentriaconta-1(28),2(31),3,5,9(14),10,12,26,29-nonaen-7-one]",8e-05 µM,12.5 nM,(109%),4.97 nM,(83%),,,2.64 nM,(97%),(104%),5.09 nM,
